Experimental data: patent US20060252683A1, “Preparation of a peptide compound (SYRAPRO-2000) and its use for the activation of protein phosphatase-2A1 enzyme” (priority 2005, published 2006)

How the values were obtained:
protein phosphatase-1 = target: T1, protein phosphatase-1 (Oryctolagus cuniculus, UniProt P62139); experiment: Protein phosphatase-1 assay; assay type: biochemical, rabbit; conditions: various concentrations
T1 construct: Protein phosphatase-1 was purified from rabbit skeletal muscle; from tissue; host or cells: rabbit skeletal muscle
Method: Protein phosphatase-1 (squares), protein phosphatase-2A1 (circles), protein phosphatase-2B (triangles) and protein phosphatase-2C (stars) were assayed in the presence of various concentrations of HIV-1 Vpr^71-96. 100 percent protein phosphatase activity is equivalent to 0.005 unit. Similar results were obtained in 3 independent experiments.
^32P-labeled phosphorylase a was prepared by phosphorylation of phosphorylase b with phosphorylase kinase as described in (Cohen 1988). ^32P-labeled casein was prepared by phosphorylation of casein with protein kinase A as described in (Tung 1986). Protein phosphatase-1 was purified from rabbit skeletal muscle as described in (Cohen 1988). Protein phosphatase-1 inhibitor-2 was purified from rabbit skeletal muscle as described in (Yang 1981). Protein phosphatase-2A0 and protein phosphatase-2A1 from pig brain and from pig liver were purified as described in (Tung 1985). Protein phosphatase-2A0 and protein phosphatase-2A1 from pig adipose tissue were highly purified by successive chromatography of pig subcutaneous adipose tissue extracts on DEAE Sepharose, Poly-L-lysine Agarose, Sephacryl S-300 HR and thiophosphorylase-a-Sepharose-4B as described in (Tung 1985). Protein phosphatase-2B was purified from pig brain as described in (Tung 1986). […]

[1] = Cell viability (tryphan blue) and cell death of SK-N-SH cells; assay type: cell-based, human; conditions: human, SK-N-SH cells (neuroblastoma cell line), 2000 nM, 4 days of incubation, read-out: treated cells non viable (tryphan blue staining)
Method: (§1) Panel A, SK—N—SH cells (a human neuroblastoma cell line) were grown in DMEM and 5% (v/v) fetal bovine serum. Cells (10^6 cells per ml) were treated (+) or not (−) with 2000 nM SYRAPRO-2000. Cell viability was then determined by counting the cells following tryphan blue staining after 4, 8 and 12 days of incubation. Panel B, Following treatment with or without SYRAPRO-2000 for 8 days, SK—N—SH cells grown on slides were analyzed by phase contrast microscopy (Row A), by fluorescence microscopy following staining with FITC labeled annexin V (apoptotic cell death) (Row B) or propidium iodide (oncolytic cell death) on a on a Zeiss Axioplan 2 imaging universal microscope (Thornwood, N.Y.). Phase contrast images and Green (FITC labeled annexin V) and red (propidium iodide) fluorescence images were obtained. […]
(§2) SK—N—SH cells are grown in DMEM supplemented with 5% (v/v) fetal bovine serum and antibiotics and treated or not with 2 μM SYRAPRO-2000 for 8 days. Following treatment with SYRAPRO-2000, cell viability are then determined by counting the cells following tryphan blue staining. […] Following treatment with SYRAPRO-2000, cells grown on slides by were analyzed by phase contrast microscopy and fluorescence microscopy following staining with FITC labeled annexin V (an indicator of apoptotic cell death) or propidium iodide (an indicator of oncolytic or necrotic cell death). […]

SK—N—SH cells = experiment: as above; assay type: cell-based, human; conditions: 2000 nM, 8 days
Method: as §1, §2

T1 sequence (P62139 whole entry): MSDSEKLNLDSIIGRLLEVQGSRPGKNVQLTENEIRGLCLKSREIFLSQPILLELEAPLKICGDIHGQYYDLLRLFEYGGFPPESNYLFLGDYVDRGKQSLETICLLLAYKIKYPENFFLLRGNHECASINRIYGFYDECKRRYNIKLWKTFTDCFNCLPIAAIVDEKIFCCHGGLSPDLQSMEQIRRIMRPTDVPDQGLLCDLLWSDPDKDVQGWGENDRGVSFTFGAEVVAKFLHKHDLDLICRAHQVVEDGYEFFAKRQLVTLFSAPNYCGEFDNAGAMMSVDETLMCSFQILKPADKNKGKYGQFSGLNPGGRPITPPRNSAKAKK

SMILES: CC[C@H](C)[C@H](NC(=O)[C@H](CCCNC(=N)N)NC(=O)[C@H](CO)NC(=O)[C@H](Cc1c[nH]cn1)NC(=O)[C@H](CCCNC(=N)N)NC(=O)[C@H](CS)NC(=O)CNC(=O)[C@@H](NC(=O)[C@H](CCCNC(=N)N)NC(=O)[C@H](Cc1ccccc1)NC(=O)[C@@H](N)Cc1c[nH]cn1)[C@@H](C)CC)C(=O)NCC(=O)N[C@H](C(=O)N[C@H](C(=O)N[C@@H](CCCNC(=N)N)C(=O)N[C@@H](CCC(N)=O)C(=O)N[C@@H](CCCNC(=N)N)C(=O)N[C@@H](CCCNC(=N)N)C(=O)N[C@@H](C)C(=O)N[C@@H](CCCNC(=N)N)C(=O)N[C@@H](CC(N)=O)C(=O)NCC(=O)N[C@@H](C)C(=O)N[C@@H](CO)C(=O)N[C@@H](CCCNC(=N)N)C(=O)N[C@@H](CO)C(=O)O)[C@@H](C)O)C(C)C [SYRAPRO-2000]
- effect on activity of protein phosphatase-1 (protein phosphatase-1): negligible effect
- cytotoxicity at 4 days, 2 µM [1]: ~50%
- mode of cell death (FITC-annexin V and propidium iodide staining) (SK—N—SH cells): apoptosis and oncolysis
